The subject of the assay is HT29 intrarenal xenograft, nude mice, tumor weight change. Kind of assay: NCI In Vivo Anticancer Drug Screen. Data for tumor model HT29;CX-1 Human Adenocarcinoma (MER+) (intrarenal inoculation) in NU/NU BALB/C (nude) mice. Particulars: endpoint: mean tumor weight change, higher = larger tumour. The method, then:
The antitumor activity of compounds was measured in mice bearing transplantable tumors. Survival or tumor size were measured and the results are expressed as the measurement made in the treated group (T) divided by the measurement made in the vehicle treated control group (C). The tumor model used in this assay is HT29;CX-1 Human Adenocarcinoma (MER+) (intrarenal inoculation) in NU/NU BALB/C (nude) mice

The mark [1] stands for this setting: dose: 1.5 mg/kg/injection, schedule: Q04DX004 (sc), vehicle: saline.
Where [2] appears, read: dose: 3.0 mg/kg/injection, schedule: Q04DX004 (sc), vehicle: saline.
Where [3] appears, read: dose: 6.0 mg/kg/injection, schedule: Q04DX004 (sc), vehicle: saline.
The mark [4] stands for this setting: dose: 150.0 mg/kg/injection, schedule: Q04DX004 (sc), vehicle: saline with Tween-80.
Where [5] appears, read: dose: 300.0 mg/kg/injection, schedule: Q04DX004 (sc), vehicle: saline with Tween-80.

“And” between values parts separate entries of the source, which are not always exact repeats. Equal entries are not always repeated. Inconclusive results are not listed.

On to `C1CC[N-]CC1.[Cl][Pt+2][Cl].[NH-]C1CC1`, for which the T/C (dose: 25.0 mg/kg/injection, schedule: Q04DX004 (sc), vehicle: water) was 99 % of control and the T/C (dose: 50.0 mg/kg/injection, schedule: Q04DX004 (sc), vehicle: water) is 46 % of control.
Turning to `Oc1ccc(CCl)c2cccnc12`, the T/C was 76 % of control (dose: 75.0 mg/kg/injection, schedule: Q04DX004 (sc), vehicle: saline); 110 % of control (dose: 150.0 mg/kg/injection, schedule: Q04DX004 (sc), vehicle: saline); 89 % of control (dose: 300.0 mg/kg/injection, schedule: Q04DX004 (sc), vehicle: saline).
With `O=C(CCCN1CCC(C(O)c2ccc(F)cc2)CC1)c1ccc(F)cc1` (centres undefined), the T/C reads like this: (dose: 12.5 mg/kg/injection, schedule: Q04DX004 (ip), vehicle: saline with Tween-80) 52 % of control; (dose: 25.0 mg/kg/injection, schedule: Q04DX004 (ip), vehicle: saline with Tween-80) 71 % of control; (dose: 50.0 mg/kg/injection, schedule: Q04DX004 (ip), vehicle: saline with Tween-80) 106 % of control; (dose: 100.0 mg/kg/injection, schedule: Q04DX004 (ip), vehicle: saline with Tween-80) 43 % of control.
On to `CNc1nc(NC)nc(NC)n1`, for which the T/C was 154 % of control (dose: 12.5 mg/kg/injection, schedule: Q01DX010 (sc), vehicle: Klucel (hydroxypropylcellulose) (HPC)) and 73 % of control (dose: 50.0 mg/kg/injection, schedule: Q01DX010 (sc), vehicle: Klucel (hydroxypropylcellulose) (HPC)).
Regarding `CCc1ccc(C2=C(O)C(=O)C(c3ccc(CC)cc3)=C(O)C2=O)cc1`, the T/C by setting is: (dose: 100.0 mg/kg/injection, schedule: Q04DX004 (sc), vehicle: saline with Tween-80) 112 % of control; (dose: 200.0 mg/kg/injection, schedule: Q04DX004 (sc), vehicle: saline with Tween-80) 91 % of control; (dose: 400.0 mg/kg/injection, schedule: Q04DX004 (sc), vehicle: saline with Tween-80) 102 % of control.
On to `CCCNC1=C(C)C(=O)C2=C(C1=O)[C@H](COC(N)=O)[C@]1(OC)[C@@H]3N[C@@H]3CN21`, for which the T/C is 26 % of control under setting [1]; 91 % of control under setting [2]; 87 % of control and 91 % of control under setting [3]; 5 % of control and 26 % of control (dose: 12.0 mg/kg/injection, schedule: Q04DX004 (sc), vehicle: saline).
With `O=C(NC1CCCCC1)OCc1c(COC(=O)NC2CCCCC2)c(-c2ccc(Cl)c(Cl)c2)n2c1CCC2`, the T/C reads like this: under setting [4], 67 % of control; under setting [5], 60 % of control; (dose: 600.0 mg/kg/injection, schedule: Q04DX004 (sc), vehicle: saline with Tween-80) 54 % of control; (dose: 1200.0 mg/kg/injection, schedule: Q04DX004 (sc), vehicle: saline with Tween-80) 65 % of control.
In the case of `COc1cc2c3c(cccc3c1)C(=O)N(CCN(C)C)C2=O`, the T/C is 72 % of control (dose: 37.5 mg/kg/injection, schedule: Q04DX004 (sc), vehicle: saline with Tween-80); 98 % of control (dose: 75.0 mg/kg/injection, schedule: Q04DX004 (sc), vehicle: saline with Tween-80); 74 % of control under setting [4]; 105 % of control under setting [5].
For the compound `OCCOCCN1CCN(CCCN2c3ccccc3Sc3ccc(C(F)(F)F)cc32)CC1`, the T/C (dose: 12.0 mg/kg/injection, schedule: Q01DX010 (sc), vehicle: saline) was 23 % of control; the T/C (dose: 24.0 mg/kg/injection, schedule: Q01DX010 (sc), vehicle: saline) was 47 % of control; the T/C (dose: 48.0 mg/kg/injection, schedule: Q01DX010 (sc), vehicle: saline) is 42 % of control.
As to `Nc1ccc(S(=O)(=O)Nc2cnc3c(Cl)cccc3n2)cc1`, the T/C (dose: 300.0 mg/kg/injection, schedule: Q04DX004 (ip), vehicle: DMSO) was 85 % of control.
As for `Cc1nnc2ncccn12`, the T/C is 73 % of control and 84 % of control (dose: 100.0 mg/kg/injection, schedule: Q04DX004 (sc), vehicle: saline); 69 % of control and 84 % of control (dose: 200.0 mg/kg/injection, schedule: Q04DX004 (sc), vehicle: saline); 72 % of control and 76 % of control (dose: 400.0 mg/kg/injection, schedule: Q04DX004 (sc), vehicle: saline).
As to `CN(CO)c1nc(N(C)CO)nc(N(C)CO)n1`, the T/C by setting is: (dose: 6.25 mg/kg/injection, schedule: Q01DX010 (sc), vehicle: saline) 100 % of control; (dose: 25.0 mg/kg/injection, schedule: Q01DX010 (sc), vehicle: saline) 92 % of control; (dose: 100.0 mg/kg/injection, schedule: Q01DX010 (sc), vehicle: saline) 6 % of control.
As for `O.O.[NH-]C1CCCCC1[NH-].[Pt+2]` (centres undefined), the T/C reads like this: (dose: 5.0 mg/kg/injection, schedule: Q01DX010 (sc), vehicle: dextrose) 98 % of control; (dose: 10.0 mg/kg/injection, schedule: Q01DX010 (sc), vehicle: dextrose) 75 % of control; (dose: 20.0 mg/kg/injection, schedule: Q01DX010 (sc), vehicle: dextrose) 34 % of control; (dose: 40.0 mg/kg/injection, schedule: Q01DX010 (sc), vehicle: dextrose) 19 % of control.
As for `Oc1c(Cl)cc(Cl)cc1C=NCCSc1ccc(Cl)cc1`, the T/C reads like this: (dose: 600.0 mg/kg/injection, schedule: Q04DX004 (ip), vehicle: Klucel (hydroxypropylcellulose) (HPC)) 105 % of control and 88 % of control; (dose: 1200.0 mg/kg/injection, schedule: Q04DX004 (ip), vehicle: Klucel (hydroxypropylcellulose) (HPC)) 80 % of control.
With `CSc1ncnc2c1ncn2C1OC(CO)C(O)C1O` (centres undefined), the T/C (dose: 37.5 mg/kg/injection, schedule: Q04DX004 (sc), vehicle: saline + alcohol) was 101 % of control; the T/C (dose: 75.0 mg/kg/injection, schedule: Q04DX004 (sc), vehicle: saline + alcohol) is 30 % of control; the T/C (dose: 150.0 mg/kg/injection, schedule: Q04DX004 (sc), vehicle: saline + alcohol) is 12 % of control.
Take `CC(C)CCC(=O)c1ccoc1`: the T/C reads like this: (dose: 0.75 mg/kg/injection, schedule: Q01DX010 (ip), vehicle: saline with Tween-80) 85 % of control; (dose: 1.5 mg/kg/injection, schedule: Q01DX010 (ip), vehicle: saline with Tween-80) 87 % of control; (dose: 3.0 mg/kg/injection, schedule: Q01DX010 (ip), vehicle: saline with Tween-80) 75 % of control and 91 % of control; (dose: 6.0 mg/kg/injection, schedule: Q01DX010 (ip), vehicle: saline with Tween-80) 74 % of control and 94 % of control.
For the compound `Cc1ccc(S(=O)(=O)N/N=C/C(=O)O)cc1`, the T/C is, setting by setting: (dose: 100.0 mg/kg/injection, schedule: Q01DX010 (sc), vehicle: Klucel (hydroxypropylcellulose) (HPC)) 87 % of control; (dose: 200.0 mg/kg/injection, schedule: Q01DX010 (sc), vehicle: Klucel (hydroxypropylcellulose) (HPC)) 50 % of control; (dose: 400.0 mg/kg/injection, schedule: Q01DX010 (sc), vehicle: Klucel (hydroxypropylcellulose) (HPC)) 96 % of control; (dose: 800.0 mg/kg/injection, schedule: Q01DX010 (sc), vehicle: Klucel (hydroxypropylcellulose) (HPC)) 106 % of control.
On to `C=C(C)C(=O)O[C@H]1CC2=C[C@@H](C[C@@]3(C)O[C@@H]3[C@H]3OC(=O)C(=C)[C@@H]31)OC2=O`, for which the T/C is 75 % of control (dose: 75.0 mg/kg/injection, schedule: Q04DX004 (sc), vehicle: Klucel (hydroxypropylcellulose) (HPC)) and 121 % of control (dose: 150.0 mg/kg/injection, schedule: Q04DX004 (sc), vehicle: Klucel (hydroxypropylcellulose) (HPC)).
For the compound `CO[C@H]1C[C@](C)(O)Cc2cc3c(c(O)c21)C(=O)c1c(O)cc2c(c1C3=O)O[C@@H]1O[C@@]2(C)[C@H](O)[C@@H](N(C)C)[C@@H]1O`, the T/C is 65 % of control (dose: 6.25 mg/kg/injection, schedule: Q01DX010 (sc), vehicle: other) and 76 % of control (dose: 12.5 mg/kg/injection, schedule: Q01DX010 (sc), vehicle: other).
Consider `CO[C@@]12[C@H](COC(N)=O)C3=C(C(=O)C(C)=C(N)C3=O)N1C[C@@H]1N[C@@H]12`, for which the T/C runs as follows: under setting [1], 47 % of control and 52 % of control and 71 % of control; under setting [2], -35 % of control and -23 % of control and -13 % of control; under setting [3], -86 % of control.
Consider `OCC(O)C(O)C(O)C(O)CO` (centres undefined), for which the T/C is, setting by setting: (dose: 75.0 mg/kg/injection, schedule: Q04DX004 (ip), vehicle: saline) 104 % of control; (dose: 150.0 mg/kg/injection, schedule: Q04DX004 (ip), vehicle: saline) 115 % of control; (dose: 300.0 mg/kg/injection, schedule: Q04DX004 (ip), vehicle: saline) 82 % of control; (dose: 600.0 mg/kg/injection, schedule: Q04DX004 (ip), vehicle: saline) 90 % of control.

These data come from PubChem BioAssay AID208 (DTP/NCI, 2004).
